Like-named read-outs stand apart in the source and are kept apart here.
Assays:
Format in all cases: binding
[1] = molecular target: HLA-A*68:01 (Homo sapiens, UniProt P04439, A269V/D185E/E176V/E277Q/E87N/F33Y/G231S/I121M/I166T/I218V/L180W/L300P/L318F/N151K/P208A/P217A/Q86R/R169H/T345S); conditions: duplicated experiments, positive binder >40%
[2] = molecular target: T1, HLA-B*58:01 (Homo sapiens, UniProt P01889, A329T/C349S/D201E/D98Y/E176V/E187L/E204Q/E69T/G107R/I218V/I90N/K202T/L105A/L119I/N104I/N87E/Q89R/Q94S/R106L/R155S/R180L/R86G/S101N/S121R/S35A/S48A/T118I/V127L/V306I/V36M/Y140S/Y91M); conditions: duplicated experiments, positive binder >40%
[3] = molecular target: T1, HLA-B*58:01
[4] = molecular target: HLA-C*07:01 (Homo sapiens, UniProt P10321, K90N/S123Y); conditions: duplicated experiments, positive binder >40%
[5] = molecular target: T1, HLA-B*58:01; conditions: time points 0-8 h
[6] = molecular target: HLA-B*07:02 (Homo sapiens, UniProt P01889); conditions: percent relative the binding of positive control peptide […]; duplicated experiments; positive binder >40%
[7] = molecular target: HLA-A*30:01 (Homo sapiens, UniProt P04439, D140H/D185E/E176W/F33S/G80R/H175R/K168Q/R138E/R41S); conditions: duplicated experiments, positive binder >40%
[8] = molecular target: T2, HLA-A*30:02 (Homo sapiens, UniProt P04439, D101N/D140H/D185E/E176R/F33S/G80R/H175R/K168Q/Q94H/R138E/R41S/V100E); conditions: time points 0-8 h
[9] = molecular target: HLA-A*02:01 (Homo sapiens, UniProt P04439, D140Y/D185E/D98H/E176V/E277Q/G131W/G231S/I119V/I121R/I166T/I218V/L300P/L318F/N151K/N90K/P208A/P217A/Q86G/Q94H/R138H/R169H/T345S); conditions: plate-bound monomer 0.5 µg/ml, duplicated experiments, positive binder >40%
[10] = molecular target: HLA-A*24:02 (Homo sapiens, UniProt P04439, D101N/D140Y/D185E/E176V/E190D/F33S/G103R/G107R/I119L/I121M/I306V/K335N/L105A/L180Q/L300P/N151K/N90K/Q86E/Q94H/R106L/R138H/R89G/T104I/T345S/V100E/W191G/Y123F); conditions: duplicated experiments, positive binder >40%
[11] = molecular target: T2, HLA-A*30:02; conditions: duplicated experiments, positive binder >40%
[12] = molecular target: T2, HLA-A*30:02
[13] = percent relative the binding of positive control peptide […]
[14] = percent relative the binding of positive control peptide KTGGPIYKR
[15] = percent relative the binding of positive control peptide IAMESIVIW
[16] = percent relative the binding of positive control peptide KTKDIVNGL
[17] = percent relative the binding of positive control peptide FLPSDFFPSV
[18] = percent relative the binding of positive control peptide RYLKDQQLL
[19] = percent relative the binding of positive control peptide KIQNFRVYY
[20] = peptide titrated 10−4 to 10−9 M
[21] = percent relative the binding of positive control peptide KYFDEHYEY

Substance | Bind A*68:01 [1, 13] [%] | Bind B*58:01 [2, 13] [%] | Aff B*58:01 (ED50) [3] [nM] | Bind C*07:01 [4, 13] [%] | O-rate B*58:01 (t1/2) [5] [h] | Bind B*07:02 [6] [%] | Bind A*30:01 [7, 13] [%] | O-rate A*30:02 (t1/2) [8] [h] | Bind A*02:01 [9, 13] [%] | Bind A*24:02 [10, 13] [%] | Bind A*30:02 [11, 13] [%] | Aff A*30:02 (ED50) [12] | Bind A*68:01 [1, 14] [%] | Bind B*58:01 [2, 15] [%] | Bind A*30:01 [7, 16] [%] | Bind A*02:01 [9, 17] [%] | Bind A*24:02 [10, 18] [%] | Bind A*30:02 [11, 19] [%] | Aff A*30:02 (ED50) [12, 20] [M] | Bind C*07:01 [4, 21] [%]
TYQAWQAQW [Rv0288_50–58] | 0 | 119 | 100 | 0 | 1.0 |  |  |  |  |  |  |  |  |  |  |  |  |  |  | 
DTGITYQAW [Rv0288_46–54] | 7 | 41 | 1000 | 0 | 2.3 |  |  |  |  |  |  |  |  |  |  |  |  |  |  | 
MKGDLQSSL | 19 | 0 |  | 63 |  | 17 | 14 | 2.8 | 16 | 22 | 90 | 2e-05 M |  |  |  |  |  |  |  | 
TGITYQAWQ [Rv0288_47–55] | 8 | 40 | 4000 | 0 | 0.8 |  |  |  |  |  |  |  |  |  |  |  |  |  |  | 
SAMILAAYH | 69 | 0 |  | 15 |  | 7 | 0 | 2.2 | 9 | 0 | 111 | 4e-08 M |  |  |  |  |  |  |  | 
PAVYLLDGL | 2 | 0 |  | 17 |  | 63 | 0 | 1 | 9 | 38 | 120 | 9E -08 M |  |  |  |  |  |  |  | 
YQAWQAQWN [Rv0288_51–59] | 23 | 52 | 2000 | 0 | 2.0 |  |  |  |  |  |  |  |  |  |  |  |  |  |  | 
AAAWGGSGS [Rv3875_40-48] |  |  |  |  |  | 4 |  | 1.1 |  |  |  |  | 15 | 8 | 29 | 8 | 0 | 129 | 5e-09 | 29
CGKAGCQT Y | 60 | 35 |  | 5 |  | 8 | 28 | 3 | 44 | 32 | 138 | 8E -08 M |  |  |  |  |  |  |  | 
AGQAMASTE [Rv3875_79–87] |  |  |  |  |  | 9 |  | 2.3 |  |  |  |  | 13 | 11 | 20 | 0 | 0 | 58 | 5e-09 | 28
VFNFPPNGT | 3 | 33 |  | 0 |  | 0 | 3 | 1.2 | 34 | 25 | 113 | 3e-05 M |  |  |  |  |  |  |  | 
AAWGGSGSE [Rv3875_41–49] |  |  |  |  |  | 4 |  | 1.5 |  |  |  |  | 29 | 9 | 18 | 29 | 2 | 167 | 3e-07 | 29
ATATELNNA [Rv3875_60–68] |  |  |  |  |  | 12 |  | 3.8 |  |  |  |  | 0 | 0 | 0 | 31 | 0 | 67 | 3e-07 | 0
WGGSGSEAY [Rv3875_43–51] |  |  |  |  |  | 7 |  | 1.1 |  |  |  |  | 2 | 2 | 18 | 3 | 0 | 89 | 4e-07 | 21
RAQDDYNGW | 2 | 41 |  | 2 |  | 0 | 11 | 1.2 | 0 | 65 | 119 | 5e-07 M |  |  |  |  |  |  |  | 
RTISEAGQA [Rv3875_74–82] |  |  |  |  |  | 11 |  | 2 |  |  |  |  | 4 | 34 | 19 | 18 | 0 | 98 | 3e-08 | 8
SNLKFQDAY | 18 | 14 |  | 52 |  | 0 | 0 | 1.6 | 11 | 23 | 124 | 2e-07 M |  |  |  |  |  |  |  | 
SAIQGNVTS [Rv3875_16–24] |  |  |  |  |  | 4 |  | 0.9 |  |  |  |  | 29 | 12 | 11 | 1 | 15 | 67 | 3e-08 | 12
RSSNLKFQD | 11 | 14 |  | 64 |  | 3 | 0 | 1.6 | 11 | 26 | 104 | 1E -05 M |  |  |  |  |  |  |  | 
MSQIMYNYP [Rv0288_1–9] | 29 | 57 | 4000 | 10 | 1.1 |  |  |  |  |  |  |  |  |  |  |  |  |  |  | 
LVANNT RLW | 38 | 50 |  | 26 |  | 50 | 2 | 0.5 | 21 | 88 | 68 | 5e-07 M |  |  |  |  |  |  |  | 
GQSSFYSDW | 0 | 62 |  | 0 |  | 0 | 0 | 3.3 | 27 | 76 | 71 | 2e-08 M |  |  |  |  |  |  |  | 
